Here are results for 12 molecules from publication PMC6017736, “Indole-3-Carbonitriles as DYRK1A Inhibitors by Fragment-Based Drug Design” (Molecules : A Journal of Synthetic Chemistry and Natural …, 2018).

One data set deals with CLK4 (Mus musculus, UniProt O35493). The data set can be described thus: Protein kinase assay ([γ-33P]-ATP, RS peptide substrate), CLK4. Type of data set: biochemical. Conditions: for IC50: 15 µM ATP; for remaining activity at 10 µM: 10 µM compound, compared to controls, read-out: Residual Activity at 10 µM CLK4. The protocol:
(§1) DYRK1A, 1B, 2, 3 (human, recombinant, expressed in E. coli as GST fusion proteins) and CLK1, 2, 3, and 4 (mouse, recombinant, expressed in E. coli as GST fusion proteins) were assayed as described for GSK-3 in Buffer A (supplemented extemporaneously with 0.15 mg BSA/mL + 1 mM DTT) with 1 µg of RS peptide ([…]) as a substrate.

The next data set deals with T1, DYRK2 (Homo sapiens, UniProt Q92630).
T1 sequence (Q92630 1-601): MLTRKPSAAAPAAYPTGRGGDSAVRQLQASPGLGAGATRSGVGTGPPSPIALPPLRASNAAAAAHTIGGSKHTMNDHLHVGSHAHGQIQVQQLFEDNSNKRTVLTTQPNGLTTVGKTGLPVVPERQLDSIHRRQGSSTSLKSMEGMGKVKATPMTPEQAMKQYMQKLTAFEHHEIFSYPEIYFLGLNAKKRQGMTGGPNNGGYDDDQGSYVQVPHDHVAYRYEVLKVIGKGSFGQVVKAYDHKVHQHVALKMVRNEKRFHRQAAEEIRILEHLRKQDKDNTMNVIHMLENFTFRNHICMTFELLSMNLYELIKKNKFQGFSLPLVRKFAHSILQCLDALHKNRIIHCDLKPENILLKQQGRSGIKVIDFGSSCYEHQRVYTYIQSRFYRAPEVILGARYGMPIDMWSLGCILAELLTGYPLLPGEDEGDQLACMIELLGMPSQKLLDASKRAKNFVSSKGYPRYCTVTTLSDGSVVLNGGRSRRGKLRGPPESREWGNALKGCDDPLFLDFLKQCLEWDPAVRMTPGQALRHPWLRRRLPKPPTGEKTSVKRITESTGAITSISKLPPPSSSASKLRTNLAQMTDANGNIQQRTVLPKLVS
The experiment in a line: Protein kinase assay ([γ-33P]-ATP, RS peptide substrate), DYRK2. The settings on record: for remaining activity at 10 µM: compared to controls, read-out: Residual Activity at 10 µM DYRK2; for IC50: 15 µM ATP. It is filed as biochemical. Here is the method: as §1

Another data set deals with DYRK1B (Homo sapiens, UniProt Q9Y463). The experiment in a line: Protein kinase assay ([γ-33P]-ATP, RS peptide substrate), DYRK1B. Type of data set: biochemical. Conditions: for IC50: 15 µM ATP, read-out: IC50 DYRK 1B; for remaining activity at 10 µM: 10 µM compound, compared to controls, read-out: Residual Activity at 10 µM DYRK 1B. The protocol:
as §1

The next data set concerns the target CLK2 (Mus musculus, UniProt O35491). The experiment in a line: Protein kinase assay ([γ-33P]-ATP, RS peptide substrate), CLK2. It is filed as biochemical. Conditions: for IC50: 15 µM ATP; for remaining activity at 10 µM: 10 µM compound, compared to controls, read-out: Residual Activity at 10 µM CLK2. Here is the method:
as §1

Data set [1] concerns the target T2, DYRK1A (Homo sapiens, UniProt Q13627). The experiment in a line: Ligand-lipophilicity efficiency (pIC50 minus calculated logP). Conditions: Table S2. Here is the method: All new compounds were evaluated based on their physicochemical properties regarding Lipinski’s rule of five and the ligand-lipophilicity efficiency (LLE). Both concepts are used to assess the druglikeness of drug development candidates. […] LLE is calculated from pIC50 minus calculated logP [46].

The test system of the next data set is GSK-3. The data set can be described thus: Protein kinase assay ([γ-33P]-ATP, GS-1 substrate), GSK-3. Conditions: 10 µM compound; for Residual Activity at 10 µM GSK3: compared to controls.
The target in a further data set is T3, DYRK3 (Homo sapiens, UniProt O43781).
T3 sequence (O43781 1-588): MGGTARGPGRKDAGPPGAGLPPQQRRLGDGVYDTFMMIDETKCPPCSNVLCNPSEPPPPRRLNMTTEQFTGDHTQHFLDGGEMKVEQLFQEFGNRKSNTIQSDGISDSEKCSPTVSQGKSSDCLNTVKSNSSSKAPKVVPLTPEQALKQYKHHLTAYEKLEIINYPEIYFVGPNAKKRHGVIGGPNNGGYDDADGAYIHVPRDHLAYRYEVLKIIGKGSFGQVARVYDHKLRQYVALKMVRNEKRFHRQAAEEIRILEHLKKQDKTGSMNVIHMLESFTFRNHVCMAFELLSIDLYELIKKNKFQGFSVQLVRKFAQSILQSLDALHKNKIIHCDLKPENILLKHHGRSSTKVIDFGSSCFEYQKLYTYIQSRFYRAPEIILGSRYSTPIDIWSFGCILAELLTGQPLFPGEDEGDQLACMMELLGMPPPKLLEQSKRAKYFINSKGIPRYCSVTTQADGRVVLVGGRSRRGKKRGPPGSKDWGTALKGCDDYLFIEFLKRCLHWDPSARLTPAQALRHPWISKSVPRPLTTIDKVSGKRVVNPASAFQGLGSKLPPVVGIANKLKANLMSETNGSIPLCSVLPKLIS
The experiment in a line: Protein kinase assay ([γ-33P]-ATP, RS peptide substrate), DYRK3. Type of data set: biochemical. The settings on record: for remaining activity at 10 µM: compared to controls, read-out: Residual Activity at 10 µM DYRK3; for IC50: 15 µM ATP. The protocol: as §1

The target of the next data set is CLK3 (Mus musculus, UniProt O35492). The data set can be described thus: Protein kinase assay ([γ-33P]-ATP, RS peptide substrate), CLK3. Type of data set: biochemical. Conditions: for remaining activity at 10 µM: compared to controls, read-out: Residual Activity at 10 µM CLK3; for IC50: 15 µM ATP. The protocol:
as §1

Another data set deals with CLK1 (Mus musculus, UniProt P22518). The data set can be described thus: Protein kinase assay ([γ-33P]-ATP, RS peptide substrate), CLK1. Type of data set: biochemical. Conditions: for IC50: 15 µM ATP; for remaining activity at 10 µM: 10 µM compound, compared to controls, read-out: Residual Activity at 10 µM CLK1. The protocol: as §1
Sequence of CLK1 (P22518 whole entry): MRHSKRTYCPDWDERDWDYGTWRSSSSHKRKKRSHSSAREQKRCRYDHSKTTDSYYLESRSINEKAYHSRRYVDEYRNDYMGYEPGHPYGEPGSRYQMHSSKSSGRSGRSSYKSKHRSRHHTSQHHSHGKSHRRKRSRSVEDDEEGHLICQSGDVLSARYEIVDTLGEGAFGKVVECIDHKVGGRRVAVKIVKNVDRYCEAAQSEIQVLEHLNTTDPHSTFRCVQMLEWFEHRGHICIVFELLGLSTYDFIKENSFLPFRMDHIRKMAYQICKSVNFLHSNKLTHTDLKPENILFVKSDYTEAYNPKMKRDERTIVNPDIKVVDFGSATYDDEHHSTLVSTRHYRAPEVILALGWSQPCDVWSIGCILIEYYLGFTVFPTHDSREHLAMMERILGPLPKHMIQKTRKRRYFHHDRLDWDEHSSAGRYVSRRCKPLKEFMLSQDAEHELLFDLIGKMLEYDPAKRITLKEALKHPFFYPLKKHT
Data set [2] concerns the target T2, DYRK1A. The data set can be described thus: Protein kinase assay ([γ-33P]-ATP, RS peptide substrate), DYRK1A. It is filed as biochemical. The settings on record: for IC50: 15 µM ATP, read-out: IC50 DYRK 1A; for remaining activity at 10 µM: 10 µM compound, compared to controls, read-out: Residual Activity at 10 µM DYRK 1A.
The nature of data set [3]: Cytotoxicity, cell viability by tetrazolium dye assay (XTT assay). It is filed as cell-based. Conditions: human, HeLa cells, 1 µM, read-out: Viability of treated HeLa cells relative to control cells. The protocol: To evaluate the applicability of the 2-substituted indole-3-carbonitrile compounds in cell culture experiments, we assessed toxicity of 6f, 6h, 6s and 13b on HeLa cells by viability assays (Table 4).
The inhibitors were added to the cultured cells from stock solutions in DMSO to the desired final concentration. For cytotoxicity assays, HeLa cells were grown in 96-well plates (20,000–30,000 cells per well) and incubated with the test compounds for 3 days before cell viability was evaluated with the help of a tetrazolium dye assay (XTT assay, AppliChem GmbH, Darmstadt, Germany).
(In general: Formazan colour is commonly taken as a measure of viable cells.)

Sequence of CLK2 (O35491 whole entry): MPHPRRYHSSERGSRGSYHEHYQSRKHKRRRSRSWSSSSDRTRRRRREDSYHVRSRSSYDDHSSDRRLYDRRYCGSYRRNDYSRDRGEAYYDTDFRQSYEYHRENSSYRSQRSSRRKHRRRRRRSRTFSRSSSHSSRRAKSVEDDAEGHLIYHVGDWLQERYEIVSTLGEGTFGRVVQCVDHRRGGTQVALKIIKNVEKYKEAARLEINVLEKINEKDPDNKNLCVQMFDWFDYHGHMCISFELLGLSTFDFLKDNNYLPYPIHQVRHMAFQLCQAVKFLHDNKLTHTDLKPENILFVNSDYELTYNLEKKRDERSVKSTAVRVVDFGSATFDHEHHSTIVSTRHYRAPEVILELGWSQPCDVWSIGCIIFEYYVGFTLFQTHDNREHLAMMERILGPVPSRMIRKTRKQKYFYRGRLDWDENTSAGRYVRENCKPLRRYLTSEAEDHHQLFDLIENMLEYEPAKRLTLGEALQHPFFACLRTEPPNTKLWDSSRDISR
Sequence of CLK3 (O35492 whole entry): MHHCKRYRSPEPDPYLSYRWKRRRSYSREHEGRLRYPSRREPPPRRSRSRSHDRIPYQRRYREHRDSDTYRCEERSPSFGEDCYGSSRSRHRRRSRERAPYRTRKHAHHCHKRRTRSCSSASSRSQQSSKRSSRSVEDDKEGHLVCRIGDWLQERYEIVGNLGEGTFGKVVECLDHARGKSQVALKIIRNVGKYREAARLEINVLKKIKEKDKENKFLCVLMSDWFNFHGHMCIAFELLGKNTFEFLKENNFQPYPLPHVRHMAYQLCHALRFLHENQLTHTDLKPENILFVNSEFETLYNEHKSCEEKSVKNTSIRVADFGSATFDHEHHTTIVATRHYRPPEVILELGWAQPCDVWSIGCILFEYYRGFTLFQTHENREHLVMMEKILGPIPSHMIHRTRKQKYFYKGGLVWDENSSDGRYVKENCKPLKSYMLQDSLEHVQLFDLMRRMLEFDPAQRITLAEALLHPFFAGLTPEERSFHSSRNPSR
Sequence of CLK4 (O35493 whole entry, the tested form may be a part): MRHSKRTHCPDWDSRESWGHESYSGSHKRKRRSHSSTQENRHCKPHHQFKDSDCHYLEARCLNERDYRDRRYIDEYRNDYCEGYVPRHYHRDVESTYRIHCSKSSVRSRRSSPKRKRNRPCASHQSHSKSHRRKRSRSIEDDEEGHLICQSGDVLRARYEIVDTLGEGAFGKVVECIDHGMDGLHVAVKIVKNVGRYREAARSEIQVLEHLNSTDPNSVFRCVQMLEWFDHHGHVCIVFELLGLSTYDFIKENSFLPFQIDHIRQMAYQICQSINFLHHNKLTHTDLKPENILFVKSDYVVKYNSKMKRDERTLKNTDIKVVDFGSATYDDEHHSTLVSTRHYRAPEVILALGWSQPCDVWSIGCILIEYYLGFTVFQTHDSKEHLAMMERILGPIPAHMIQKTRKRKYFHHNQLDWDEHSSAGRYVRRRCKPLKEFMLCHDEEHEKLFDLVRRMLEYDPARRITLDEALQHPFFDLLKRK
Sequence of DYRK1B (Q9Y463 whole entry): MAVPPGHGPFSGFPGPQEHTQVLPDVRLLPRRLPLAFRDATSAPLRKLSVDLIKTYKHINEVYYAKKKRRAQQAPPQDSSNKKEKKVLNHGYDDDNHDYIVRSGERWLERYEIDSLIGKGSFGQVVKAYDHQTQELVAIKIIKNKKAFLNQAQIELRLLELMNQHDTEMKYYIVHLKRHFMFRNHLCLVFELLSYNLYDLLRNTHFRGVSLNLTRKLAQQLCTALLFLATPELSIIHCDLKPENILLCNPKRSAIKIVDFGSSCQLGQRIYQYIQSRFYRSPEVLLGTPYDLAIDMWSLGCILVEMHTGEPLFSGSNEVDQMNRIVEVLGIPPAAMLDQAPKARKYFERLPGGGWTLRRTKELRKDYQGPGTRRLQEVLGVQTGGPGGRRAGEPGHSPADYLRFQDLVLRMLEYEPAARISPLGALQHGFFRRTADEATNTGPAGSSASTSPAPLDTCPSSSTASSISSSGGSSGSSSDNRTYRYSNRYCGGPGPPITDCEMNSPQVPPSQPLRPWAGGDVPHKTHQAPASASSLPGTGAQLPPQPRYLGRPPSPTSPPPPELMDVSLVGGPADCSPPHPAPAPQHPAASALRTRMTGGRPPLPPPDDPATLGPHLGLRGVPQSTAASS
Description for GSK-3: First, the kinases were incubated with 10 µM solutions of the compounds and the residual activities compared to controls were measured.
Controls were performed with appropriate dilutions of DMSO. The GS-1 and RS peptide substrates were obtained from Proteogenix (Oberhausbergen, France).
After 30 min incubation at 30 °C, the reaction was stopped by harvesting onto P81 phosphocellulose supernatant (Whatman) using a FilterMate harvester (Packard) and washing in 1% phosphoric acid. Scintillation fluid was added and the radioactivity measured in a Packard counter [52].
All data points for construction of dose response curves were recorded in triplicate.

As a reminder, the IC50 is the concentration that gives 50% inhibition. The term inhibition denotes the drop in the measured response relative to a control, in per cent. For the molecule `N#Cc1c(-c2ccccc2)[nH]c2ccccc12` [Compound 6d, 2-Phenyl-1H-indole-3-carbonitrile], the IC50 against CLK4 was 2 µM; at DYRK1B, 6 µM; on CLK2, over 10 µM; at CLK1, 0.8 µM; on DYRK1A [2], 0.4 µM. Moreover, the inhibition at 10 µM on DYRK2 (10 µM compound, read-out: Inhibition at 10 µM DYRK2 (class symbol)) was under 20%; at DYRK3 (10 µM compound, read-out: Inhibition at 10 µM DYRK3 (class symbol)), under 20%; at CLK3 (10 µM compound, read-out: Inhibition at 10 µM CLK3 (class symbol)), under 20%. For the same molecule, on DYRK1A [1], the LLE was 2.90. For the same molecule, in the data set on GSK-3, the “Inhibition at 10 µM GSK3 (class symbol)” value is listed as “- (-: less than 20% inhibition at 10 µM, IC50 was not determined)”.

Consider `Cc1cccc2c(C#N)c(-c3ccccc3)[nH]c12` [Compound 6e, 7-Methyl-2-phenyl-1H-indole-3-carbonitrile], for which the remaining activity at 10 µM at CLK4 was found to be 43%; on DYRK2 (10 µM compound), 75%; on DYRK1B it was 74%; at CLK2 it was 75%; at DYRK3 (10 µM compound) it was 105%; on CLK3 (10 µM compound), 124%. In addition, the remaining activity at 10 µM on CLK1 amounted to 56%; on DYRK1A [2] it was 35%.

As to `N#Cc1c(-c2ccc(Cl)cc2)[nH]c2c(Cl)cccc12` [Compound 6i, 7-Chloro-2-(4-chlorophenyl)-1H-indole-3-carbonitrile], the “Residual Activity at 10 µM GSK3” value in the data set on GSK-3 was found to be 112%. The remaining activity at 10 µM at CLK1 amounted to 68%; on DYRK1A [2], 60%.

As to `COc1ccc(-c2[nH]c3c(Cl)cccc3c2C#N)cc1` [Compound 6j, 7-Chloro-2-(4-methoxyphenyl)-1H-indole-3-carbonitrile], the “Residual Activity at 10 µM GSK3” value in the data set with GSK-3 is 118%. The remaining activity at 10 µM stood at 47% at CLK1 and 60% at DYRK1A [2].

For the molecule `C=CCc1[nH]c2c(Cl)cccc2c1C#N` [Compound 6k, 2-Allyl-7-chloro-1H-indole-3-carbonitrile], the IC50 against CLK4 is 0.533 µM; against DYRK2, over 10 µM; at DYRK1B it was 1.3 µM; against CLK2, 1.3 µM; at DYRK3, over 10 µM; against CLK3, over 10 µM. The IC50 against CLK1 was 0.533 µM; at DYRK1A [2], 0.69 µM. In addition, the LLE at DYRK1A [1] is given as 2.77.

As for `N#Cc1c(CCC2OCCCO2)[nH]c2c(Cl)cccc12` [Compound 6l, 2-(2-(1,3-Dioxan-2-yl)ethyl)-7-chloro-1H-indole-3-carbonitrile], the IC50 against CLK4 is 4 µM; against DYRK2 it was over 10 µM; at DYRK1B, over 10 µM; against CLK2 it was over 10 µM; on DYRK3, over 10 µM; on CLK3 it was over 10 µM. For the same molecule, the values for the 50% inhibitory concentration (IC50) at CLK1 and at DYRK1A [2] were 4.9 µM and 3.9 µM, respectively. The LLE at DYRK1A [1] is on record as 2.57.

For the molecule `N#Cc1c(-c2ccc(Cl)cc2)[nH]c2c(I)cccc12` [Compound 6m, 7-Iodo-2-(4-chlorophenyl)-1H-indole-3-carbonitrile], the remaining activity at 10 µM at CLK4 was determined as 36%; at DYRK2 (10 µM compound) it was 116%; on DYRK1B, 79%; on CLK2, 92%; at DYRK3 (10 µM compound), 101%; on CLK3 (10 µM compound), 130%. Besides, the remaining activity at 10 µM on CLK1 worked out at 55%; at DYRK1A [2] it was 42%.

With `COc1ccc(-c2[nH]c3c(I)cccc3c2C#N)cc1` [Compound 6n, 7-Iodo-2-(4-methoxyphenyl)-1H-indole-3-carbonitrile], the IC50 on CLK4 is 0.22 µM; at DYRK2, over 10 µM; on DYRK1B it was over 10 µM; on CLK2, over 10 µM; against DYRK3, over 10 µM; against CLK3, over 10 µM. Further, the figures for the IC50 against CLK1 and on DYRK1A [2] were 0.333 µM and 0.233 µM, respectively. On DYRK1A [1], the LLE was 2.36.

With `COc1cccc(-c2[nH]c3c(I)cccc3c2C#N)c1` [Compound 6o, 7-Iodo-2-(3-methoxyphenyl)-1H-indole-3-carbonitrile], the concentration for half-maximal inhibition (IC50) against CLK4 is 0.29 µM; against DYRK2, over 10 µM; on DYRK1B, 0.633 µM; on CLK2, 3.3 µM; against DYRK3 it was over 10 µM; against CLK3, over 10 µM. Also, the half-inhibitory concentration (IC50) at CLK1 is 0.633 µM; at DYRK1A [2], 0.21 µM. Further, the LLE on DYRK1A [1] is 2.41.

In the case of `N#Cc1cn(Cc2ccccc2)c2c(Cl)cccc12` [Compound 13a, 1-Benzyl-7-chloro-1H-indole-3-carbonitrile], the remaining activity at 10 µM was found to be 84% on CLK4; 144% on DYRK2 (10 µM compound); 78% at DYRK1B; 95% on CLK2; 95% on DYRK3 (10 µM compound); 127% at CLK3 (10 µM compound). Also, the remaining activity at 10 µM on CLK1 is 102%; at DYRK1A [2], 97%.

Regarding `Cn1cc(C#N)c2cccc(Cl)c21` [Compound 13c, 7-Chloro-1-methyl-1H-indole-3-carbonitrile], the remaining activity at 10 µM was found to be 30% at CLK4; 117% on DYRK2 (10 µM compound); 47% on DYRK1B; 70% on CLK2; 95% on DYRK3 (10 µM compound); 97% at CLK3 (10 µM compound). In addition, the remaining activity at 10 µM on CLK1 was 56%; at DYRK1A [2] it was 32%.

One may read the viability as the share of living cells, or the viability signal relative to a control. On to `CN[C@@H]1C[C@H]2O[C@@](C)([C@@H]1OC)n1c3ccccc3c3c4c(c5c6ccccc6n2c5c31)C(=O)NC4` [Staurosporine, reference compound], for which the viability at 3 days, 1 µM in data set [3] is 20%.
